Measurements reported in patent US12091423B2, “Substituted 3,4,12,12a-tetrahydro-1H-[1,4]oxazino[3,4-c]pyrido[2,1-f][1,2,4]triazine-6,8-dione, pharmaceutical composition, method for the production and use thereof” (VIRIOM, INC., priority 2019, dated 2024).

System: influenza A/Perth/265/2009 (H1N1pdm09) (H275Y)
Type: cell-based, influenza A virus

## O=C1c2c(O)c(=O)ccn2N([C@@H]2c3ccc(F)c(F)c3CSc3ccsc32)[C@@H]2COCCN12 [1.3.2, (12aR)-7-hydroxy-12-[(10R)-6,7-difluoro-5,10-dihydrothieno[3,2-c][2]benzothiepin-10-yl]-3,4,12,12a-tetrahydro-1H-[1,4]oxazino[3,4-c]pyrido[2,1-f][1,2,4]triazine-6,8-dione]
  EC50: 0.8 nM
